Structures are written as SMILES. Marks after values point to notes of the source that are not given here.

Common to all, as to type: in vivo, Sprague Dawley rats
In data set [1] the test system is pleuresy induced by carragenine. As to the kind of experiment: pleuresy induced by carragenine. As to conditions: for Exudate volume: 1 h before carragenine, 5 h. How it is done: Pleuresy by carragenine: Male Sprague Dawley rats were used (200-250 g) and adapted to laboratory conditions for 15 days with water and food ad libitum and were deprived of food 12 h previous to the experiment. M.H.A.A.B.W. was administered in a 10 mg/mL acacia gum/water suspension, as well as triacontanol, while indomethacine was dissolved in 5% sodium bicarbonate.
All the treatments were administered using gastric gavage one hour previous to the injection of carragenine. Rats were randomly distributed in the following experimental groups: 1) control (vehicle); 2, 3 and 4) M.H.A.A.B.W. at 25, 50 and 100 mg/kg respectively; 5) triacontanol at 50 mg/kg and 6) indomethacine at 10 mg/kg.
For the induction of the edema, rats were anesthesized with ether and 0.3 mL of carragenine in 1% of saline solution were injected in the pleural cavity. Five hours later, the animals were sacrificed and the exudate were colected, determining its volume. The percent of inhibition of the edema is calculated using the following formula:
Inhibition (%)=1−(VT)/(VC)×100
VT=volume of the edema of treated animals
VC=volume of the edema of control animals

The test system of data set [2] is gastric ulcer induced by alcohol (60%) and indometacine (10 mg/kg). Briefly: gastric ulcer induced by alcohol (60%) and indometacine (10 mg/kg). On the procedure:
The objective of the present work is to determine if the protective effect of […]. against ulcer is dependent of prostaglandins or not. Male Sprague Dawley rats, weighting 150 to 200 g, were adapted to laboratory conditions for 7 days with water and food ad libitum, up to 48 h previous to the experiment, where food is suppressed. The animals were randomly distributed in 4 experimental groups. […]. was administered intraperitoneally in a 2% Tween 20/water suspension, cimetidine was dissolved in hot water and indomethacine in 5% sodium bicarbonate. […] […] after the animals were injected by i.p. route indomethacine was administered at 10 mg/kg by subcutaneous route. Half an hour later, was administered 60% alcohol and, an hour later, the animals were sacrificed. The stomachs were extracted, opened by the bigger curvature and measured the size of the ulcer using a 3× enlargement. Results were expressed in […]. In all cases, the comparison between the treated groups and the control one was realized using the non parametric U de Mann Whitney test.

Data set [3] deals with cotton granule. Briefly: model of cotton granule. As to conditions: 3 mg/kg orally, 6 days. On the procedure:
In order to corroborate the antiinflamatory effect of the […]. are used the pleuresy induced by carragenine and the granule by cotton models, those ones that constitute established models for the evaluation of antiinflamatory drugs. Granule by cotton: Male Sprague Dawley rats, weighing 200 to 250 g, were adapted to laboratory conditions in the same way as the last experiment. […]. was administered orally in a 2% Tween 20/water suspension, while administered orally in a 5% sodium bicarbonate. […] Rats were randomly distributed in 5 experimental groups: 1) control (vehicle); 2, 3, and 4) […]. at 25, 50 and 100 mg/kg respectively and 5) indomethacine at 3 mg/kg. Rats were, previously, anaesthetized with ether, doing an incision in the dorsal region. The […] cotton pellet of 50 mg was sub-cutaneously and applied with a local […] finally the injured is closed. […] The percent of inhibition was […] taking as reference the weight of the granule formed in the control group.

For data set [4], the system named is acid gastric secretion. Briefly: gastric acidity in the model of pilorous ligatured. As to conditions: 4 h after pilorous ligature. How it is done: The results obtained in last examples sugest an action over ulcer induced by acid compounds dependent or independent. With the objective of discard the inhibitory effect over the inhibition of the acid gastric secretion was determined the action of […]. over this acid gastric secretion in the pilorous ligature model. Female Sprague Dawley rats, weighing 150 to 200 g were adapted to laboratory conditions for 15 days with water and food ad libitum. The animals were randomly distributed in different experimental groups and food was deprived 48 h previous to the ligature. […]. was administered intraperitoneally in a 2% Tween 20/water suspension. Cimetidine was dissolved in hot water and administered by the same route as […]. […] Rats were anaesthetized with ether and an incision, in the abdominal region was done, stomachs were extracted and pilorous were ligatured with thread. […], after that, the compound was administered by i.p. route and 3 mL of saline solution were injected by subcutaneous route. Four h later, the animals were sacrificed, intact stomachs were extracted, tweezed by the esophagus. The gastric content was centrifuged at 3000 min^-1 for 10 min and, later on, the volume was measured. The acidity of the gastric juice was measured using 0.1 mol/L NaOH and phenolphtalein as indicator. The comparison between the treated groups and the control one was realized using the non parametric U de Mann Whitney test.

Where [5] appears, read: 25 mg/kg i.p., indomethacine 10 mg/kg s.c. + 60% alcohol.

One may read the Inhibition as the share of the control response that was lost under treatment. In data set [1] (10 mg/kg oral), `COc1ccc2c(c1)c(CC(=O)O)c(C)n2C(=O)c1ccc(Cl)cc1` [Indometacine, indomethacine] had an Inhibition of 59.6% and an Exudate volume of 0.50 ± 0.15 mL. The molecule further returned a Ulcer in data set [2] (indometacine alone (10 mg/kg s.c.), no alcohol) of 0 mm. In addition, in data set [3], the Inhibition is reported as 69.3% and the Weight of granule is recorded as 79 + 0.02 ** mg.

Turning to `CN/C(=N/CCSCc1nc[nH]c1C)NC#N` [Cimetidine, cimetidine], in data set [2] (setting [5]), the Inhibition is reported as 71.2% and the Ulcer is listed as 14.6 +/− 5.64* mm. For the same molecule, in data set [4] (25 mg/kg i.p.), the Acidity is on record as 0,080 +/− 0,009* meq H^+/mL and the Gastric juice volume is listed as 5,87 +/− 0,63* mL. Besides, in data set [4] (50 mg/kg i.p.), the Acidity is on record as 0,083 +/− 0,006** meq H^+/mL and the Gastric juice volume is 5,83 +/− 0,38** mL.

For the molecule `CCCCCCCCCCCCCCCCCCCCCCCCCCCCCCO` [Triacontanol, 1-triacontanol], the Inhibition in data set [1] (100 mg/kg oral (maximum dose assayed)) came out at 27.4%. In addition, in data set [1] (100 mg/kg oral), the Exudate volume came to 0.96 ± 0.30 mL.

The record behind these values is US6465526B1, “Natural mixture composed of higher primary aliphatic alcohols obtained from bee wax for the treatment of gastric and duodenal ulcers that also present antiinflamatory activity” (Laboratories Dalmer SA, priority 1994, dated 2002).
